Results on 14 molecules are retold here after PubChem BioAssay (NCI).

Holding throughout (assay): growth of human tumour cells (NCI), 48 h
Experiment [1] has as its system A498 renal.
The test system of experiment [2] is ACHN renal.
Experiment [3] has as its system HCT-15 colon.
Experiment [4] deals with MDA-MB-435.
Experiment [5] relates to NCI-H226 lung.
Experiment [6] relates to NCI/ADR-RES ovarian.
Experiment [7] deals with RXF 393 renal.
The subject of experiment [8] is SN12C renal.
The test system of experiment [9] is SNB-19 CNS.
For experiment [10], the system named is MOLT-4 leukemia.

Structures are written as SMILES.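 Compound exposure: 48 hours, 5 concentrations, 96-well plates. GI50 = concentration required for 50% inhibition of growth. The concentration for full growth arrest is given as TGI.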

In the case of `S=c1nc(N/N=C/c2ccco2)c2cn[nH]c2[nH]1`, the GI50 is 3.23 µM in experiment [1]; > 100 µM in experiment [2]; 50 µM in experiment [3]; 45.7 µM in [4]; > 100 µM in [5]; > 100 µM in experiment [6]. For the same molecule, the GI50 in [7] is > 100 µM; in [8], 83.7 µM; in experiment [9], > 100 µM. The TGI in experiment [1] is 22.5 µM; in experiment [2], > 100 µM; in experiment [3], > 100 µM; in [4] it was > 100 µM; in experiment [5] it was > 100 µM; in experiment [6] it was > 100 µM. Moreover, the TGI in experiment [7], in [8] and in experiment [9] was > 100 µM throughout.
On to `COC(=O)C1=C(C(=O)OC)C2(C)C=CC1O2` (configuration not stated), for which the TGI was 54 µM in [1]; 18.7 µM in [2]; 29.7 µM in experiment [3]; 33.2 µM in experiment [4]; 39.9 µM in experiment [5]; 37.6 µM in experiment [6]. Besides, the TGI is 57.6 µM in [7], 31.3 µM in [8] and > 100 µM in [9].
Turning to `COc1cc(C)c(C2NC(=O)c3ccccc3N2)cc1C` (configuration not stated), the TGI is 4.77 µM in [1]; > 95.4 µM in [2]; 10 µM in experiment [3]; 0.209 µM in experiment [4]; 35.8 µM in experiment [10]; 16.5 µM in experiment [5]. Besides, the values for the TGI in experiment [6], in experiment [7] and in experiment [8] were 0.679 µM, 8.61 µM and > 100 µM, respectively.
In the case of `Cc1c(-c2ccnc(N)n2)c2c(n1Cc1ccccc1)C(=O)c1ccccc1C2=O`, the GI50 in experiment [2] was 8.34 µM; in experiment [3], 4.8 µM; in experiment [4], 4.84 µM; in [6], 13.3 µM; in experiment [7], 11.3 µM; in experiment [8], > 100 µM. In addition, the GI50 in experiment [9] is 18.1 µM. Further, the TGI in experiment [2] is 36.8 µM; in experiment [3] it was > 100 µM; in [4], 24.2 µM; in experiment [6], > 100 µM; in [7] it was 38.2 µM; in [8], > 100 µM. In addition, the TGI in experiment [9] was > 100 µM.
Take `O=C([O][Sn]([O]C(=O)c1ccccn1)([c]1ccccc1)[c]1ccccc1)c1ccccn1`: the GI50 in [1] was 1.87 µM; in experiment [2], 9.36 µM; in [3], 6.95 µM; in experiment [4] it was 2.29 µM; in experiment [5], 14.7 µM; in experiment [6], 11.8 µM. Further, the GI50 in [7] is 2.77 µM; in experiment [8], 13.8 µM; in experiment [9], 15.5 µM. Moreover, the TGI in [1] is 6.56 µM; in [2], 21.2 µM; in experiment [3] it was 20.4 µM; in experiment [4], 6.04 µM; in experiment [5] it was 29.6 µM; in experiment [6], 24.8 µM. Besides, the results for the TGI in [7], in experiment [8] and in experiment [9] were 13 µM, 26.9 µM and 29.1 µM, respectively.
Consider `c1ccc2c(-c3nc(-c4c[nH]c5ccncc45)cs3)c[nH]c2c1`, for which the GI50 in [1] was 10 µM; in experiment [2], 1.72 µM; in experiment [3], 1.56 µM; in experiment [4] it was 1.75 µM; in experiment [5], 3.24 µM; in experiment [6] it was 3.2 µM. In addition, the GI50 in [7] is 1.55 µM; in [8], 1.67 µM; in experiment [9], 2.18 µM. Further, the TGI was found to be 22.1 µM in [1]; 3.36 µM in experiment [2]; 3.4 µM in experiment [3]; 3.23 µM in [4]; 17.7 µM in experiment [5]; 15.5 µM in experiment [6]. The figures for the TGI in experiment [7], in experiment [8] and in experiment [9] were 3.03 µM, 3.35 µM and 5.12 µM, respectively.
For the molecule `Cc1nc2c(n1C)C(=O)c1ccccc1C2=O`, the GI50 in experiment [1] is > 100 µM; in [2], > 100 µM; in [3], 53.6 µM; in experiment [4], 48.1 µM; in experiment [10] it was 85 µM; in experiment [5] it was > 100 µM. Also, the GI50 in experiment [6] is 81.7 µM; in experiment [8] it was 49.4 µM; in experiment [9], 91.3 µM. Moreover, the TGI in [1], in experiment [2], in experiment [3], in experiment [4], in experiment [10] and in experiment [5] was > 100 µM throughout. Further, the TGI in experiment [6], in [8] and in experiment [9] was > 100 µM each time.
With `CC(C)(C)OC(=O)NCCCn1c2c(c3ccccc3c1=O)C(=O)c1ccccc1-2`, the GI50 in experiment [1] was 46.1 µM; in experiment [2], 14.3 µM; in experiment [3] it was > 100 µM; in experiment [4], > 100 µM; in experiment [10] it was > 100 µM; in experiment [5], 63.5 µM. The GI50 in experiment [6] was 6.69 µM; in experiment [8], 24.8 µM; in experiment [9] it was 12.1 µM. Moreover, the TGI in [1] was > 100 µM; in experiment [2], 67.9 µM; in experiment [3], > 100 µM; in experiment [4], > 100 µM; in [10] it was > 100 µM; in [5], > 100 µM. Also, the TGI in [6] was 98.6 µM; in experiment [8], > 100 µM; in experiment [9] it was 29.6 µM.
As to `CCCCCC[C@H](C)Nc1nc2ccccc2c2occc12`, the GI50 is 11.3 µM in experiment [1]; 11.7 µM in experiment [2]; 10.1 µM in experiment [3]; 14.7 µM in experiment [4]; 3.47 µM in experiment [10]; 0.147 µM in experiment [6]. Besides, the values for the GI50 in [7], in experiment [8] and in [9] were 12.6 µM, 11.2 µM and 29.7 µM, respectively. Also, the TGI was 25.8 µM in [1]; 23.9 µM in [2]; 22 µM in [3]; 35.2 µM in experiment [4]; 16.2 µM in experiment [10]; 12.8 µM in [6]. The TGI in [7] was 30.6 µM; in experiment [8], 23.9 µM; in [9] it was > 100 µM.
`O=c1[nH]c2ccccc2n1CCCN1CCC(n2c(=O)[nH]c3cc(Cl)ccc32)CC1`: the TGI turned out to be 42.9 µM in experiment [1]; 32.9 µM in experiment [2]; 39.9 µM in [3]; 29.7 µM in experiment [4]; 45.1 µM in [10]; 45 µM in experiment [5]. Further, the TGI was 60.8 µM in experiment [6], 29.9 µM in experiment [7] and 30.6 µM in experiment [8].
Regarding `CCOc1c(N=Nc2ccccc2Cl)c(-c2ccccc2)nn1C(=S)S`, the TGI was > 100 µM in [2]; > 100 µM in [3]; > 100 µM in experiment [4]; 58.2 µM in [10]; 93.8 µM in experiment [5]; > 100 µM in experiment [6]. In addition, the TGI in experiment [7] was > 100 µM; in [8], 34.8 µM; in experiment [9], > 100 µM.
With `COc1ncnc(S(=O)(=O)c2ccc(N=C3C(=O)N(CN4CCN(c5cc6c(cc5F)c(=O)c(C(=O)O)cn6C5CC5)CC4)c4ccc(Cl)cc43)cc2)c1OC`, the GI50 was 10.2 µM in experiment [2]; 19.7 µM in [3]; > 50 µM in experiment [4]; 24.9 µM in [10]; 38.9 µM in [5]; > 50 µM in experiment [6]. Further, the GI50 is > 50 µM in experiment [7], 30.4 µM in experiment [8] and > 50 µM in experiment [9]. Also, the TGI in experiment [2], in experiment [3], in experiment [4], in experiment [10], in experiment [5] and in experiment [6] was > 50 µM each time. Also, the TGI in experiment [7], in [8] and in [9] was > 50 µM in each case.
Turning to `COc1cc2c(cc1OC)C(=O)/C(=C/c1cc(-c3ccc4c(c3)OCO4)n[nH]1)C2`, the GI50 in [1] was 1.33 µM; in experiment [2] it was 1.73 µM; in [3], 1.12 µM; in experiment [4], 1.73 µM; in experiment [10] it was 2.57 µM; in [6], 2.25 µM. Besides, the results for the GI50 in [7], in experiment [8] and in experiment [9] were 1.54 µM, 1.59 µM and 1.55 µM, respectively. Further, the TGI was 2.83 µM in [1]; 3.23 µM in experiment [2]; 2.81 µM in [3]; 3.27 µM in [4]; 6.97 µM in experiment [10]; 6.87 µM in experiment [6]. Further, the TGI in experiment [7] stood at 3.19 µM; in [8], 2.99 µM; in experiment [9], 2.96 µM.
As to `O=C(Oc1ccc(CO[N+](=O)[O-])cc1)c1ccccc1`, the GI50 is 1.07 µM in experiment [1]; 0.113 µM in experiment [2]; 0.172 µM in [3]; 0.157 µM in [4]; 0.214 µM in experiment [5]; 0.195 µM in [6]. Besides, the figures for the GI50 in experiment [7], in experiment [8] and in experiment [9] were 0.165 µM, 0.216 µM and 0.202 µM, respectively. For the same molecule, the TGI in experiment [1] was determined as 2.26 µM; in [2], 0.236 µM; in experiment [3], 0.358 µM; in experiment [4] it was 0.307 µM; in [5], 0.518 µM; in [6], 0.434 µM. Also, the TGI came to 0.319 µM in experiment [7], 0.701 µM in experiment [8] and 0.706 µM in experiment [9].
